Assays:
Format in all cases: cell-based
[1] = system: procollagen-I synthesis in human dermal fibroblasts; assay: Dot blot assay for procollagen-I in dermal fibroblast conditioned medium; conditions: for Pro-collagen: 24 hours, relative to vehicle treated control value of 100
Description: (§1) Primary human foreskin fibroblasts at passage 2 (P2) were seeded into 12-well plates at 10000 cells/cm^2 and maintained for 24 hours in an atmosphere of 5% carbon dioxide and 4% oxygen in Dulbeccos Modified Eagles Medium (DMEM) supplemented with 10% foetal calf serum. After this time the cells were washed with serum free DMEM and then incubated in fresh serum free DMEM for a further 60 hours. The fibroblast monolayers were then washed again with serum free DMEM. Test reagents and vehicle controls were added to the cells in triplicate in a final volume of 0.4 ml/well fresh serum free DMEM and incubated for a further 24 hours. This fibroblast conditioned medium was either analysed immediately or snap frozen in liquid nitrogen and stored at −70° C. for future analysis. The cells were then counted and data from the dot-blot analysis subsequently standardised to cell number.
(§2) Samples of conditioned medium from dermal fibroblasts treated with vehicle (as a control) or test reagents were supplemented with 20 mM dithiothreitol (1:10 dilution of 200 mM stock solution) and 0.1% sodium dodecylsulphate (1:100 dilution of 10% stock solution), mixed well and then incubated at 75° C. for 2 minutes. […]
(§3) Following this the Immobilon strips were again washed with TBS/Tween 20 (3×5 minutes) before being allowed to dry in air at room temperature. […] Dot intensity was assessed by computer-assisted image analysis using the quantification tools in ImageQuant™, standardised to cell number and the effects of various test reagents on decorin and procollagen-I synthesis were determined relative to a vehicle treated control value of 100 arbitrary units.
(§4) Tables 1 indicates the effects of trans-7-octadecanoic acid on procollagen-I and decorin synthesis in human dermal fibroblasts, and the amounts in which it was applied. In order to normalize the results the effects of the test substance was determined relative to a vehicle treated control value of 100 arbitrary units.

[2] = system: decorin synthesis in human dermal fibroblasts; assay: Dot blot assay for decorin in dermal fibroblast conditioned medium; conditions: for Decorin: 24 hours, relative to vehicle treated control value of 100
Description: as §1, §2, §3, §4

[3] = system: Transglutaminase activity in pigskin epidermis; assay: In situ TGase assay in pig skin organ culture; conditions: for Transglutaminase activity (fluorescence-background) Mean: pig organ culture, 48 hours
Description: Porcine back skin was prepared by carefully removing subcutaneous fat and muscle resulting in a skin sample 3-4 mm thick. Hair was clipped and the skin was washed in water, removing any residual blood or dirt. The skin sample was cut into 7 cm×7 cm squares and incubated in 5% Dettol (sterile) for 1 hr at room temp (RT). It was then incubated in DMEM containing ABAM (5 mL/500 mL of medium) for 1 hr. Hydrocortisone 21-hemisuccinate (100îg/mL, sterile filtered) was added to DMEM+ABAM. Tripods and meshes were set up on petri dishes containing 3 ml of media (DMEM/ABAM/hydrocortisone), creating a negative meniscus. Punch biopsies were taken from the skin and placed onto the mesh (4 per dish), and then incubated for 24 hrs at 37° C., 5% CO2 before being treated. Media was changed daily.
A stock solution of 10 mM Biotinylated monodansylcadaverine in 0.013M HCl was, and stored at −20° C. From the stock solution substrate buffer was prepared: 0.1 mM biotinylated monodansylcadaverine, 5 mM CaCl2 in 100 mM Tris HCl. 5 mM CaCl2 was replaced with 200 mM EDTA for a […] control.
Pig skin biopsies were snap frozen in liquid nitrogen and stored at −20° C. Sections were cut (5-8 microns thick, Brights cryostat) and air-dried for 10 minutes at room temperature (RT). The sections were incubated for 30 minutes at RT with 1% BSA in 0.1M Tris/HC1, pH 8.4 then incubated in substrate buffer for 2 hours at RT. The slides were washed to stop the reaction in 25 mM EDTA in PBS for 5 minutes, followed by two washes in PBS. The slides were then incubated in Alexa fluor 488 streptavidin (1:250) for 30 minutes at RT, then washed in PBS as before. The slides were counterstained with 10îg/ml propidium iodide for 10 seconds, then washed in water and mounted in prolong antifade solution. Sections were visualised using a Microscope (Leica, Leitz DMRB, Leitz ploemopak filter block L3, Milton Keynes, Bucks. UK) and images were captured using Image Grabber PC Software (Neotech Ltd. Eastleigh, Hampshire, UK). […]

[4] = system: Human foreskin keratinocytes; assay: Pico Green DNA assay of keratinocyte extracts (proliferation)
Description: (§5) […] The cells were grown for 3 days prior to treatment. The treatment vehicle was DMSO. After 4 days of treatment, the cells were harvested and washed three times with 100 μl phosphate buffered saline (PBS). The cells were then extracted in 1% Triton X100, 50 mM Tris pH 8.0, 0.02 mM Leupeptin, 0.02 mM Pepstatin. 60 μl/well extract was then assayed for DNA concentration (ng/well), Pico Green DNA assay, Molecular Probes.

[5] = system: Human foreskin keratinocytes; assay: Keratinocyte cornified envelope assay (marker of keratinocyte differentiation)
Description: Method to Assess Effect of Active on Keratinocyte Cornified Envelope Production—a Marker of Keratinocyte Differentiation
as §5
The cells were then washed in 200 μl PBS, and then 100 μl of 2% SDS, 20 mM DTT was added to each well. The plates were then sealed with a Titertek plate sealer (ICN) and incubated at 60° C. over night in an air-tight damp environment (i.e. a sealed sandwich box lined with damp paper). The extract was then filtered through a PVDF transfer membrane (Bio-rad) under gravity using Dot-Blot apparatus (Bio-rad). The membrane was then washed in distilled water prior to silver staining (Bio-rad Silver Stain kit). The stained dot blot membrane was then analyzed using Phoretix array software (Phoretix International).

[6] = human dermal fibroblasts, statement in words
[7] = Table 3, 1 μM, grown in 1.2 mM calcium
[8] = Table 4, 0.001 μM, low calcium, P = 0.002

**Q.** How did the Pro-collagen ([1]; 0.1 μM) turn out when `CCCCCCCCCC/C=C/CCCCCC(=O)O` [Trans-7-octadecanoic acid, trans-7-octadecanoic acid] was run?
**A.** 194.96 arbitrary units

**Q.** And the Pro-collagen ([1]; 1.0 μM)?
**A.** 126.63 arbitrary units

**Q.** And the “effect on synthesis of procollagen-I as compared to the control” value [1, 6]?
**A.** significantly up-regulates

**Q.** What about the Decorin ([2]; 1.0 μM) of the same molecule?
**A.** 163.10 % of vehicle control

**Q.** And the Decorin ([2]; 10.0 μM)?
**A.** 134.04 % of vehicle control

**Q.** What about the “effect on synthesis of decorin as compared to the control” value [2, 6] of the same molecule?
**A.** significantly up-regulates

**Q.** What about the “Transglutaminase activity (fluorescence-background) Mean” value ([3]; 0.1 μM) of the same molecule?
**A.** 1908

**Q.** What about the “effect on transglutamine cross linking activity” value ([3]; 1 μM, intact pigskin epidermis, statement in words) of the same molecule?
**A.** induces transglutamine cross linking activity

**Q.** What about the “Transglutaminase activity (fluorescence-background) Mean” value ([3]; 1 μM) of the same molecule?
**A.** 2268

**Q.** And the “DNA Mean” value ([4]; Table 2, 1 μM, grown in 1.2 mM calcium, p < 0.05)?
**A.** 9 ng/well

**Q.** And the “DNA Mean” value ([4]; Table 2, 10 μM, grown in 1.2 mM calcium, p < 0.05)?
**A.** 7 ng/well

**Q.** What about the “DNA Mean” value ([4]; Table 2, 50 μM, grown in 1.2 mM calcium) of the same molecule?
**A.** 6 ng/well

**Q.** What about the “DNA Mean” value ([4]; Table 2, 100 μM, grown in 1.2 mM calcium) of the same molecule?
**A.** 4 ng/well

**Q.** And the “DNA Mean” value ([4]; Table 3, 0.1 μM, grown in 1.2 mM calcium, P < 0.05)?
**A.** 5 ng/well

**Q.** And the “DNA Mean” value [4, 7]?
**A.** 6 ng/well

**Q.** And the DNA % control ([4]; Table 4, 0.001 μM, low calcium)?
**A.** 100 % control

**Q.** And the “DNA Mean” value ([4]; Table 4, 0.001 μM, low calcium)?
**A.** 1.41 ng/well

**Q.** And the DNA % control ([4]; Table 4, 0.01 μM, low calcium)?
**A.** 100 % control

**Q.** And the “DNA Mean” value ([4]; Table 4, 0.01 μM, low calcium)?
**A.** 1.42 ng/well

**Q.** What about the “effect on keratinocyte proliferation” value ([4]; in high calcium, statement in words) of the same molecule?
**A.** proliferation enhancer

**Q.** What about the “Cornified Envelope Assay Mean” value ([5]; Table 2, 1 μM, grown in 1.2 mM calcium, 4 days of treatment) of the same molecule?
**A.** 57900

**Q.** What about the “Cornified Envelope Assay Mean” value ([5]; Table 2, 10 μM, grown in 1.2 mM calcium, 4 days of treatment) of the same molecule?
**A.** 54689

**Q.** And the “Cornified Envelope Assay Mean” value ([5]; Table 2, 50 μM, grown in 1.2 mM calcium, 4 days of treatment)?
**A.** 49272

**Q.** And the “Cornified Envelope Assay Mean” value ([5]; Table 2, 100 μM, grown in 1.2 mM calcium, 4 days of treatment)?
**A.** 42110

**Q.** What about the “Cornified Envelope Assay Mean” value ([5]; Table 3, 0.1 μM, grown in 1.2 mM calcium) of the same molecule?
**A.** 37930

**Q.** And the “Cornified Envelope Assay Mean” value [5, 7]?
**A.** 47773

**Q.** And the “Cornified Envelope Assay Mean” value [5, 8]?
**A.** 39627

**Q.** And the “Cornified Envelope assay % control” value [5, 8]?
**A.** 212 % control

**Q.** And the “Cornified Envelope Assay Mean” value ([5]; Table 4, 0.01 μM, low calcium)?
**A.** 22221

**Q.** What about the “Cornified Envelope assay % control” value ([5]; Table 4, 0.01 μM, low calcium) of the same molecule?
**A.** 119 % control

**Q.** And the “effect on cornified envelope production” value ([5]; in low calcium, at low concentrations, statement in words)?
**A.** induces cornified envelope production
